# Source: patent US20250099440A1, “A PHARMACEUTICAL COMBINATION AND USE THEREOF” (Ascentage Pharma (Suzhou) Co., Ltd., priority 2021, published 2025)
# Tests used:
# [1] = tested on: MM1.S; assay: CDX model of MM1.S; format: in vivo
# [2] = tested on: KMS34; assay: CDX model of KMS34; format: in vivo
# [3] = tested on: platelet; conditions: compared with Compound E; cited from earlier work
# [4] = tested on: NCI-H929; assay: Cell viability CTG assay in BCL-2i resistant MM model NCI-H929; format: cell-based; conditions: insensitive or resistant to BCL-2 inhibitor
# Method: (§1) Cell viability was determined using CellTiter-Glo® luminescent cell viability assay (Promega) or WST assay (Cell counting Kit-8, Shanghai life iLab, China) by following manufacturer's instruction. Cell viability was calculated as cell viability=(mean RLU sample−mean RLU blank)/(RLU cell control−RLU blank)×100. IC50 value was calculated using GraphPad Prism. Combination index (CI) value was calculated by CalcuSyn software (BIOSOFT, UK). CI<0.9 indicate a synergistic combination effect. CI<0.1 scored as 5+ indicates very strong synergistic combination effect, CI between 0.1 and 0.3 scored as 4+ indicates strong synergistic combination effect, CI between 0.3 and 0.7 scored as 3+ indicates medium synergistic combination effect.
# Method used was the cell viability CTG assay. BCL-2i resistant MM mode NCI-H929 was established.
# [5] = tested on: RPMI 8226 cells; assay: Cell viability CTG assay in BCL-2i insensitive RPMI 8226 MM cells; format: cell-based
# Method: as §1
# Method used was the cell viability CTG assay.
# [6] = tested on: KMS27 drug-resistant (DTEP) clones; assay: Venetoclax-resistant DTEP clones of KMS27 MM cell line: proliferation and apoptosis; format: cell-based
# Excerpt: Compared with the parent cells, IC50 is increased by at least 3 to 10 times.
# [7] = tested on: MM1.S; assay: Cell death in Venetoclax-resistant MM cell line MM1.S; format: cell-based; conditions: compared with Venetoclax and Navitoclax
# [8] = tested on: KMS34; assay: Cell death in Venetoclax-resistant MM cell line KMS34; format: cell-based; conditions: compared with Venetoclax and Navitoclax
# [9] = tested on: primary MM cells; assay: Primary MM cells from 4 MM patients in vitro; format: cell-based, human; conditions: compared with venetoclax
# Excerpt: The activity of compound E was confirmed in primary MM cells in vitro.
# [10] = tested on: RS4;11 cells carrying different Bcl-2 mutation; assay: Cell viability CTG assay in RS4;11 cells, wild type and Bcl-2 mutants; format: cell-based, human
# Method: Cell viability was determined using CellTiter-Glo® luminescent cell viability assay (Promega) or WST assay (Cell counting Kit-8, Shanghai life iLab, China) by following manufacturer's instruction. Cell viability was calculated as cell viability=(mean RLU sample−mean RLU blank)/(RLU cell control−RLU blank)×100. IC50 value was calculated using GraphPad Prism. Combination index (CI) value was calculated by CalcuSyn software (BIOSOFT, UK). CI<0.9 indicate a synergistic combination effect. CI<0.1 scored as 5+ indicates very strong synergistic combination effect, CI between 0.1 and 0.3 scored as 4+ indicates strong synergistic combination effect, CI between 0.3 and 0.7 scored as 3+ indicates medium synergistic combination effect. Method used was the cell viability CTG assay. RS4;11 cells were established from the bone marrow of a patient with acute lymphoblastic leukemia (ALL).
smiles,measurement,setting,value
"Cc1c(S(C)(=O)=O)c(-c2cc(F)cc(N3CCN(c4ccc(NS(=O)(=O)c5ccc(N[C@H](CCN6CCC(C(=O)OCCCP(=O)(O)O)CC6)CSc6ccccc6)c(S(=O)(=O)C(F)(F)F)c5)cc4)CC3)c2)c(-c2ccc(Cl)cc2)n1C(C)C [compound D, (3R)-1-(3-(4-(4-(4-(3-(2-(4-chlorophenyl)-1-isopropyl-4-methylsulfonyl-5-methyl-1H-pyrrol-3-yl)-5-fluorophenyl)piperazin-1-yl)-phenylaminosulfonyl)-2-trifluoromethylsulfonyl-anilino)-4-phenylthio-butyl)-piperidine-4-carboxylic acid 3-phosphonopropyl ester]",efficacy in CDX model,[1],also effective
same,efficacy in CDX model,[2],also effective
same,platelet toxicity,[3],lower platelet toxicity
CN[C@@H](C)C(=O)N[C@H]1CN(S(=O)(=O)c2cccc(S(=O)(=O)N3CC[C@H]4CC[C@@H](C(=O)NC(c5ccccc5)c5ccccc5)N4C(=O)[C@@H](NC(=O)[C@H](C)NC)C3)c2)CC[C@H]2CC[C@@H](C(=O)NC(c3ccccc3)c3ccccc3)N2C1=O [APG-1387],inhibition of cell proliferation,[4],single agent activity to inhibit cell proliferation
Cc1c(S(C)(=O)=O)c(-c2cc(F)cc(N3CCN(c4ccc(NS(=O)(=O)c5ccc(N[C@H](CCN6CCC(C(=O)O)CC6)CSc6ccccc6)c(S(=O)(=O)C(F)(F)F)c5)cc4)CC3)c2)c(-c2ccc(Cl)cc2)n1C(C)C [APG-1252M1],inhibition of cell proliferation,"[5]; RPMI 8226 model, insensitive to BCL-2 inhibitor",single agent activity in inhibiting cell proliferation
same,apoptosis,[6],induced apoptosis
same,proliferation of drug-resistant clones,[6]; compared with Venetoclax,successfully inhibited the proliferation of drug-resistant clones
same,cell death induction,[7],the most effective in inducing cell death
same,cell death induction,[8],the most effective in inducing cell death
same,activity in primary MM cells,[9],higher than venetoclax
"O=C(NS(=O)(=O)c1ccc(NC[C@H]2COCCO2)c([N+](=O)[O-])c1)c1ccc(N2CCN(CC3=C(c4ccc(Cl)cc4)CC4(CCC4)CC3)CC2)cc1Oc1cnc2[nH]ccc2c1 [APG-2575, (S)—N-((4-(((1,4-dioxan-2-yl)methyl)amino)-3-nitrophenyl)sulfonyl)-2-((1H-pyrrolo[2,3-b]pyridin-5-yl)oxy)-4-(4-((6-(4-chlorophenyl)spiro[3.5]non-6-en-7-yl)methyl)piperazin-1-yl)benzamide]",IC50,"[5]; Homo sapiens, RPMI 8226 cells, CTG",5.58 µM
CCN1[C@@H](C(=O)NC23CCC(C(=O)O)(CC2)CC3)[C@H](c2cccc(Cl)c2F)[C@]2(C(=O)Nc3cc(Cl)ccc32)C12CCCCC2 [APG-115],cell viability,"[10]; RS4;11-WT and RS4;11 carrying G101V, D103E, V156D, G101V-D103E, CTG",effectively decrease cell viability
same,IC50 (CTG 72 h) compared with ABT-199 (venetoclax),"[10]; all RS4;11 cell lines (WT and Bcl-2 mutants), 72 h",lower than those of ABT-199 (venetoclax) in all cell lines
